A word on the IC50: it is the concentration at which inhibition is half-maximal. A lower IC50 goes with greater potency. What is called melting point is the temperature of the solid-liquid transition. Usually solubility stands for the dissolved amount per volume that the medium holds. The low end stands for little dissolved substance, the high end for much dissolved substance.

Results on seven compounds are retold here after patent US11198694B2, “HDAC6 inhibitors, with improved solubility and their uses” (UNIVERSITÄT REGENSBURG, priority 2017, dated 2021).

The target of data set [1] is T1, human HDAC6 (Homo sapiens, UniProt Q9UBN7).
T1 construct: purchased Reaction Biology Corporation HDAC6
T1 sequence (Q9UBN7 1-1215): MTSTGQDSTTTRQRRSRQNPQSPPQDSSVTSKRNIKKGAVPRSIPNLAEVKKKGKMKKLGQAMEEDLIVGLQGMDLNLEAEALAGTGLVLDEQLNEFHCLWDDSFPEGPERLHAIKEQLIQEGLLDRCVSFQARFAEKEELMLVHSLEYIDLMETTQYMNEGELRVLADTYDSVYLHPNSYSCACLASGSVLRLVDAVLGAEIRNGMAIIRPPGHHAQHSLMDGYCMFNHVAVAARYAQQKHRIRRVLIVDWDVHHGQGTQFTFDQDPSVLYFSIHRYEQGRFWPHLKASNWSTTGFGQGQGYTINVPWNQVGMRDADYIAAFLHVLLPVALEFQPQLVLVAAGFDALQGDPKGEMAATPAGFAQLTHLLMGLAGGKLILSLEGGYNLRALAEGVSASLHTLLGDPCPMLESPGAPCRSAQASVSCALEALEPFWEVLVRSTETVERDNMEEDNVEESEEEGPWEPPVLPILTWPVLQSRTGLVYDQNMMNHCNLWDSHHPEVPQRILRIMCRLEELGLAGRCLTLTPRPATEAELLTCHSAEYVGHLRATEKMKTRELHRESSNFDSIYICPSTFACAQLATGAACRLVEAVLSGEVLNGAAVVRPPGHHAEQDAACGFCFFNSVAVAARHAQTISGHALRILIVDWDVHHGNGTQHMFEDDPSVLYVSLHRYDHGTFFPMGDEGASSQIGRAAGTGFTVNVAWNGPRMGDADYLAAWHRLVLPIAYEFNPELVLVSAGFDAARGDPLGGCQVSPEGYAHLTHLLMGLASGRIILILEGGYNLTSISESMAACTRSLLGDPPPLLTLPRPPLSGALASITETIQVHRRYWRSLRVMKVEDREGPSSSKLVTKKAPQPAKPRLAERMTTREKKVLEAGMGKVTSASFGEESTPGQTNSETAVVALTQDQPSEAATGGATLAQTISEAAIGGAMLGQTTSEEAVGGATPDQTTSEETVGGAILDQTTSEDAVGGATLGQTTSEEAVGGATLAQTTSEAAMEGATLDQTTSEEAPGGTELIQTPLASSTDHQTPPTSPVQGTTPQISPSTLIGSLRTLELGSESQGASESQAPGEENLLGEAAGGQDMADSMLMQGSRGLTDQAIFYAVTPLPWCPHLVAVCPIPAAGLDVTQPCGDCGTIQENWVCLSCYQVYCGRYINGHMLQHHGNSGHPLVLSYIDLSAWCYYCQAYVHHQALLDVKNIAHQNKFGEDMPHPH
The data set can be described thus: Fluorescence HDAC enzyme inhibition assay (Reaction Biology Corporation). Type of data set: biochemical. On the procedure: (§1) The IC50 values for the various inhibitors against the isoenzymes of HDAC were measured by Reaction Biology Corporation (Malvern, Pa., USA) (Buffer, Kalin et al. 2010): For the enzyme inhibition assay, human recombinant protein material was used (human HDAC2 (CAT #: HDAC2), human HDAC6 (CAT #: HDAC6) or human HDAC8 (CAT #: HDAC8)). A 10-point dose response curve was prepared using a 3-fold dilution series (1:3), started at a concentration of 1 μM in DMSO for the synthesized drugs and 10 μM in DMSO for the reference substance Trichostatin A231 (TSA, for HDAC 2, 6 and 8). Reaction time was 90 minutes at 37° C. in a volume of 50 μL in a 96 well plate. Reaction buffer: 50 mM Tris-HCl, pH=8.0, 137 mM NaCl, 2.7 mM KCl, and 1 mM MgCl2 freshly added: 1 mg/ml bovine serum albumin. The fluorescence was measured using a fluoroscope Ascent™ FL fluorometer. The percent enzyme activity was calculated relative to the DMSO control. IC50 values were calculated using GraphPad Prism (GraphPad Prism 4.0 Software, San Diego, USA) based on a sigmoidal dose-response equation.
(§2) HDAC enzyme inhibition assays were conducted by Reaction Biology Corporation (Malvern, Pa., USA) using a ten point dose response curve with half-log serial dilutions, fluorogenic peptides at 50 μM as enzymatic substrates. Substrate for HDAC 2 and 6: fluorogenic peptide from p53 residues 379-382 (RHKK(Ac)AMC). Substrate for HDAC-8: fluorogenic peptide from p53 residues 379-382 (RHK(Ac)K(Ac)AMC).

Data set [2] is described as follows: Solubility in H2O. In kind it is physicochemical. The settings on record: water.
The target in data set [3] is T2, human HDAC2 (Homo sapiens, UniProt Q92769).
T2 construct: purchased Reaction Biology Corporation HDAC2
T2 sequence (Q92769 whole entry): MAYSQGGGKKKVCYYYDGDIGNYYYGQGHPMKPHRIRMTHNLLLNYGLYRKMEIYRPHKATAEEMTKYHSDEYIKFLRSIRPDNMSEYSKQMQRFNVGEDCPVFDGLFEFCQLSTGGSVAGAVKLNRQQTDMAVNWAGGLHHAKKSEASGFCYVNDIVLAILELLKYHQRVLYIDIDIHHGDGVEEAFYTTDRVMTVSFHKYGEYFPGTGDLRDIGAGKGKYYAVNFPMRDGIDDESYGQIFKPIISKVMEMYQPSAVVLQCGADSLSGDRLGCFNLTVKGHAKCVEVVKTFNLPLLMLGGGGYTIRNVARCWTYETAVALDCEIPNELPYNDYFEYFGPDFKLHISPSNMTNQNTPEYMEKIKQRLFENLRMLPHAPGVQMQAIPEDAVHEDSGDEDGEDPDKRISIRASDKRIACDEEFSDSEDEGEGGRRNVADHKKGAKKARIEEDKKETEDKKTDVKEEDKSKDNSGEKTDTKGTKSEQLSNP
Kind of data set: Fluorescence HDAC enzyme inhibition assay (Reaction Biology Corporation). Type of data set: biochemical. How it is done: as §1, §2

The target of data set [4] is T3, human HDAC8 (Homo sapiens, UniProt Q9BY41).
T3 construct: purchased Reaction Biology Corporation HDAC8
T3 sequence (Q9BY41 1-377): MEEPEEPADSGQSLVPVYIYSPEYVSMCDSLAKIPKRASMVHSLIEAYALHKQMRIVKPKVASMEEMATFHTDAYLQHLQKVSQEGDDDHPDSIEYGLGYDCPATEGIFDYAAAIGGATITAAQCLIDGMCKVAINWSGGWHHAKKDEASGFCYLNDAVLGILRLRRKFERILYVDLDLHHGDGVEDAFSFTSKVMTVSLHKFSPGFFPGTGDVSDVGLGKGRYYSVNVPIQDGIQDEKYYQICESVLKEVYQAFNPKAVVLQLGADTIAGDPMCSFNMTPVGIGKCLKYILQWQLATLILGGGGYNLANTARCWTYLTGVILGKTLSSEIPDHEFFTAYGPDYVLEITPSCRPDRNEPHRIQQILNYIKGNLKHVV
Described as above. In kind it is biochemical. How it is done:
as §1, §2

`CN1C(=O)C2c3c(n(Cc4ccc(C(=O)NO)cc4)c4ccccc34)CCN2C1=O` (stereo not drawn) [Compound 31a, N-Hydroxy-4-((2-methyl-1,3-dioxo-2,3,5,6-tetrahydro-1H-imidazo[1′,5′:1,2]pyrido[4,3-b]indol-7(11cH)-yl)methyl)benzamide]: the melting point fell in the range of 248.1 to 251.7 °C. This compound displayed an IC50 in data set [1] of 8.99 ± 1.11 nM.
Compound `CN1C(=O)C2CN(Cc3c2c2ccccc2n3Cc2ccc(C(=O)NO)cc2)C1=O` (stereo not drawn) gave a solubility in data set [2] of less than 1000 µg/mL.
As for `CN1C(=O)[C@@H]2CN(Cc3c2c2cc(OCCN4CCOCC4)ccc2n3Cc2ccc(C(=O)NO)cc2)C1=O` [(S)-21, N-Hydroxy-4-(((6S)-4-methyl-8-(2-morpholinoethoxy)-3,5-dioxo-3,4,5,6-tetrahydro-2,6-methano[1,3]diazocino[5,6-b]indole-11(1H)-yl)methyl)benzamide], the IC50 is 3.02 nM in data set [1], 1800 nM in data set [3] and 364 nM in data set [4].
For the compound `CN1C(=O)C2CN(Cc3c2c2cc(OCCN4CCOCC4)ccc2n3Cc2ccc(C(=O)NO)cc2)C1=O` (stereo not drawn) [Compound 21, 4-(2-((11-(4-(Hydroxycarbamoyl)benzyl)-4-methyl-3,5-dioxo-1,3,4,5,6,11-hexahydro-2,6-methano[1,3]diazocino[5,6-b]indol-8-yl)oxy)ethyl)morpholin-4-ium chloride], the IC50 in data set [1] turned out to be 2.41 ± 0.76 nM; in data set [4], 121 ± 10 nM.
Consider `CN1C(=O)C2c3c(c4ccccc4n3Cc3ccc(C(=O)NO)cc3)CCN2C1=O` (stereo not drawn) [Compound 41, N-Hydroxy-4-((2-methyl-1,3-dioxo-2,3,5,6-tetrahydro-1H-imidazo[1′,5′:1,2]pyrido[3,4-b]indol-11(11bH)-yl)methyl)benzamide], for which the values for the IC50 in data set [1] and in data set [4] were 30.7 ± 5.8 nM and 83 ± 6 nM, respectively.
For `CN1CC(=O)N2CCc3c(c4ccccc4n3Cc3ccc(C(=O)NO)cc3)C2C1=O` (stereo not drawn) [Compound 31b, N-hydroxy-4-((2-methyl-1,4-dioxo-1,3,4,6,7,12c-hexahydropyrazino[1′,2′:1,2]pyrido[4,3-b]indol-8(2H)-yl)methyl)benzamide], in that order: 16.4 ± 0.75 nM and 251 ± 32.5 nM.
`CN1C(=O)[C@H]2CN(Cc3c2c2cc(OCCN4CCOCC4)ccc2n3Cc2ccc(C(=O)NO)cc2)C1=O` [(R)-21, N-Hydroxy-4-(((6R)-4-methyl-8-(2-morpholinoethoxy)-3,5-dioxo-3,4,5,6-tetrahydro-2,6-methano[1,3]diazocino[5,6-b]indole-11(1B)-yl)methyl)benzamide]: the IC50 in data set [1] was 7.05 nM; in data set [3], 13000 nM; in data set [4] it was 1970 nM.
